Values joined by “and” are separate entries in the source; they are usually repeats but may differ in a detail not shown here. Equal values may be shown once. Peptide text beside a SMILES is read from it.
Key:
[1] = target: T1, Prolactin-releasing peptide receptor (Homo sapiens, UniProt P49683)
T1 sequence (P49683 whole entry): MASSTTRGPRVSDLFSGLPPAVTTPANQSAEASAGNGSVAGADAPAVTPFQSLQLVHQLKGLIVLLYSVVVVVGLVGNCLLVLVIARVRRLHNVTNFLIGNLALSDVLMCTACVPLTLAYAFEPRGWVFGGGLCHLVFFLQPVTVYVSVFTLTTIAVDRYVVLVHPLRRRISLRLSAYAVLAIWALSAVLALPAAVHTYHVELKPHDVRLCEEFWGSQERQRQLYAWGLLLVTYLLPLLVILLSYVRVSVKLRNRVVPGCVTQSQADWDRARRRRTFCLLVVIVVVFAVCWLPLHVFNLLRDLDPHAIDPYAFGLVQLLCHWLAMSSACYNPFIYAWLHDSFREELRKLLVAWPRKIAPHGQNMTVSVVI

[2] = target: Neuropeptide FF receptor 2 (Homo sapiens, UniProt Q9Y5X5)
Neuropeptide FF receptor 2, sequence (Q9Y5X5 whole entry): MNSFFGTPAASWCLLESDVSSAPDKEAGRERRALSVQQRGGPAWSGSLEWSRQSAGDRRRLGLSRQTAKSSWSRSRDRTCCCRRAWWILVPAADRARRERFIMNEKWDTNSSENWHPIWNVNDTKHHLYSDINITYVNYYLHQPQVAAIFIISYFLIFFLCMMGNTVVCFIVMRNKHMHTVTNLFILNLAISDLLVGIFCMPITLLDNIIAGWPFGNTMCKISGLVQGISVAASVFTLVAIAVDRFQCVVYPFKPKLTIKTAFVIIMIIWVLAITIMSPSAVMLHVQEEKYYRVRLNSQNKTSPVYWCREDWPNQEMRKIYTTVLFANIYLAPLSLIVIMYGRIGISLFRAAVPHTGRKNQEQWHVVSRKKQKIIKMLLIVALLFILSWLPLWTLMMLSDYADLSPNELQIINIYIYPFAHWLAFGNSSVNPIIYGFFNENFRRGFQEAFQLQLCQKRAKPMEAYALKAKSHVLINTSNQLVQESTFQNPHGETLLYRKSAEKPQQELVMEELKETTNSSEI

Ki [1] [nM] | Ki | Ki [2] [nM] | SMILES
> 10000 | 15 nM | 15 | CSCC[C@H](N)C(=O)N1CCC[C@H]1C(=O)N[C@@H](Cc1cnc[nH]1)C(=O)N[C@@H](CO)C(=O)N[C@@H](Cc1ccccc1)C(=O)N[C@@H](C)C(=O)N[C@@H](CC(N)=O)C(=O)N[C@@H](CC(C)C)C(=O)N1CCC[C@H]1C(=O)N[C@@H](CC(C)C)C(=O)N[C@@H](CCCNC(=N)N)C(=O)N[C@@H](Cc1ccccc1)C(N)=O [RFamide-related peptide 1] (H-MPHSFANLPLRF-NH2)
– | 2400 nM | – | CC(C)C[C@H](NC(=O)[C@@H](N)Cc1ccccc1)C(=O)N[C@@H](Cc1ccccc1)C(=O)N[C@@H](CCC(N)=O)C(=O)N1CCC[C@H]1C(=O)N[C@@H](CCC(N)=O)C(=O)N[C@@H](CCCN=C(N)N)C(=O)N[C@@H](Cc1ccccc1)C(=O)O [NSC_0]
– | – | 5.3 | CC(C)C[C@H](NC(=O)[C@H](N)Cc1ccc(O)cc1)C(=O)N(C)[C@@H](Cc1ccccc1)C(=O)N[C@@H](CCC(N)=O)C(=O)N1CCC[C@H]1C(=O)N[C@@H](CCC(N)=O)C(=O)N[C@@H](CCCN=C(N)N)C(=O)N[C@@H](Cc1ccccc1)C(N)=O [CAS_132709] (HELM PEPTIDE1{[dY].L.[meF].Q.P.Q.R.F.[am]}$$$$V2.0)

The remaining lines, values behind:

SMILES | Ki [1] [nM] | Ki | Ki [2] [nM]
CC[C@H](C)[C@H](NC(=O)CNC(=O)[C@H](CCCNC(=N)N)NC(=O)CNC(=O)[C@@H](NC(=O)[C@H](Cc1ccc(O)cc1)NC(=O)[C@H](Cc1c[nH]c2ccccc12)NC(=O)[C@H](C)NC(=O)[C@@H]1CCCN1C(=O)[C@H](CC(N)=O)NC(=O)[C@@H](NC(=O)[C@H](CC(=O)O)NC(=O)[C@@H]1CCCN1C(=O)[C@@H](N)[C@@H](C)O)[C@@H](C)CC)[C@@H](C)O)C(=O)N[C@@H](CCCNC(=N)N)C(=O)N1CCC[C@H]1C(=O)N[C@H](C(=O)NCC(=O)N[C@@H](CCCNC(=N)N)C(=O)N[C@@H](Cc1ccccc1)C(N)=O)C(C)C [CAS_222988-10-5] (H-TPDINPAWYTGRGIRPVGRF-NH2) | 1 | 2.3 nM | 23
CC[C@H](C)[C@H](NC(=O)CN)C(=O)N[C@@H](CCCN=C(N)N)C(=O)N1CCC[C@H]1C(=O)N[C@H](C(=O)NCC(=O)N[C@@H](CCCN=C(N)N)C(=O)N[C@@H](Cc1ccccc1)C(N)=O)C(C)C [NSC_0] (H-GIRPVGRF-NH2) | 47 | – | 32
N=C(N)NCCCC(NC(=O)C(c1ccccc1)c1ccccc1)C(=O)NCc1ccc(O)cc1 (configuration not stated) [NSC_5311023] | > 10000 | 390 nM | 640
CC(C)C[C@H](NC(=O)[C@H](CC(N)=O)NC(=O)[C@@H]1CCCN1C(=O)[C@@H](N)C(C)C)C(=O)N1CCC[C@H]1C(=O)N[C@@H](CCC(N)=O)C(=O)N[C@@H](CCCNC(=N)N)C(=O)N[C@@H](Cc1ccccc1)C(N)=O [RFamide-related peptide 3] | > 10000 | 19 nM | 55
CC(C)C[C@H](NC(=O)[C@@H](N)Cc1ccccc1)C(=O)N[C@@H](Cc1ccccc1)C(=O)N[C@@H](CCC(N)=O)C(=O)N1CCC[C@H]1C(=O)N[C@@H](CCC(N)=O)C(=O)N[C@@H](CCCN=C(N)N)C(=O)N[C@@H](Cc1ccccc1)C(N)=O [CAS_235433-36-0] | – | 5.2 nM and 5.9 nM | –
